# Measurements published in US12077503B2, “Substituted cyclic amides and their use as herbicides” (FMC CORPORATION, priority 2015, dated 2024).
# Key:
# Assay type in all cases: in vivo
# [1] = test system: giant foxtail (Setaria faberii); assay: Test A postemergence; conditions: Setaria faberi, post-emergence, 240 h, 125 g ai/ha, Postemergence; visual injury after approximately 10 d; 0 to 100 scale where 0 is no effect and 100 is complete control; read-out: Plant response rating, Foxtail, Giant
# In short: (§1)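 Treatment is preemergence as a directed soil spray after planting, or postemergence at the one- to two-leaf stage, with test chemical in a non-phytotoxic solvent mixture plus surfactant. Plants stay in the greenhouse about 10 d before visual injury scoring on a 0 to 100 scale versus untreated controls.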
# [2] = test system: ragweed (common ragweed, Ambrosia elatior); assay: Test A postemergence; conditions: Ambrosia artemisiifolia, post-emergence, 240 h, 125 g ai/ha, Postemergence; visual injury after approximately 10 d; 0 to 100 scale where 0 is no effect and 100 is complete control; read-out: Plant response rating, Ragweed
# In short: as §1
# [3] = test system: pigweed (Amaranthus retroflexus); assay: Test A postemergence; conditions: Amaranthus retroflexus, post-emergence, 240 h, 125 g ai/ha, Postemergence; visual injury after approximately 10 d; 0 to 100 scale where 0 is no effect and 100 is complete control; read-out: Plant response rating, Pigweed
# In short: as §1
# [4] = test system: Galium (catchweed bedstraw, Galium aparine); assay: Test A postemergence; conditions: Galium, post-emergence, 240 h, 125 g ai/ha, Postemergence; visual injury after approximately 10 d; 0 to 100 scale where 0 is no effect and 100 is complete control; read-out: Plant response rating, Galium
# In short: as §1
# [5] = test system: corn (Zea mays); assay: Test A postemergence; conditions: Zea mays, post-emergence, 240 h, 125 g ai/ha, Postemergence; visual injury after approximately 10 d; 0 to 100 scale where 0 is no effect and 100 is complete control
# In short: as §1
# [6] = test system: barnyardgrass (Echinochloa crus-galli); assay: Test A postemergence; conditions: Echinochloa crus-galli, post-emergence, 240 h, 125 g ai/ha, Postemergence; visual injury after approximately 10 d; 0 to 100 scale where 0 is no effect and 100 is complete control; read-out: Plant response rating, Barnyardgrass
# In short: as §1
# [7] = test system: ryegrass, Italian (Italian ryegrass, Lolium multiflorum); assay: Test A postemergence; conditions: Lolium multiflorum, post-emergence, 240 h, 125 g ai/ha, Postemergence; visual injury after approximately 10 d; 0 to 100 scale where 0 is no effect and 100 is complete control; read-out: Plant response rating, Ryegrass, Italian
# In short: as §1
# [8] = test system: blackgrass (Alopecurus myosuroides); assay: Test A postemergence; conditions: Alopecurus myosuroides, post-emergence, 240 h, 125 g ai/ha, Postemergence; visual injury after approximately 10 d; 0 to 100 scale where 0 is no effect and 100 is complete control; read-out: Plant response rating, Blackgrass
# In short: as §1
# [9] = test system: Kochia (Kochia scoparia); assay: Test A postemergence; conditions: Bassia scoparia, post-emergence, 240 h, 125 g ai/ha, Postemergence; visual injury after approximately 10 d; 0 to 100 scale where 0 is no effect and 100 is complete control; read-out: Plant response rating, Kochia
# In short: as §1
# [10] = test system: wheat (Triticum aestivum); assay: Test A postemergence; conditions: Triticum aestivum, post-emergence, 240 h, 125 g ai/ha, Postemergence; visual injury after approximately 10 d; 0 to 100 scale where 0 is no effect and 100 is complete control; read-out: Plant response rating, Wheat
# In short: as §1
# [11] = test system: giant foxtail (Setaria faberii); assay: Test A preemergence; conditions: Setaria faberi, pre-emergence, 240 h
# In short: as §1
# [12] = test system: ragweed (common ragweed, Ambrosia elatior); assay: Test A preemergence; conditions: Ambrosia artemisiifolia, pre-emergence, 240 h
# In short: as §1
# [13] = test system: pigweed (Amaranthus retroflexus); assay: Test A preemergence; conditions: Amaranthus retroflexus, pre-emergence, 240 h
# [14] = test system: barnyardgrass (Echinochloa crus-galli); assay: Test A preemergence; conditions: Echinochloa crus-galli, pre-emergence, 240 h
# In short: as §1
# [15] = test system: ryegrass, Italian (Italian ryegrass, Lolium multiflorum); assay: Test A preemergence; conditions: Lolium multiflorum, pre-emergence, 240 h
# In short: as §1
# [16] = test system: Kochia (Kochia scoparia); assay: Test A preemergence; conditions: Bassia scoparia, pre-emergence, 240 h
# In short: as §1
# [17] = test system: sedge, umbrella (small-flower umbrella sedge, Cyperus difformis); assay: Test B flooded paddy test; conditions: Cyperus difformis, Flood, 250 g ai/ha; scale of 0 to 100 where 0 is no effect and 100 is complete control; read-out: Sedge, Umbrella plant response rating
# In short: (§2)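 Rating scale 0–100 (visual, vs untreated controls) after a 13–15 d greenhouse period; application to the flood layer, 3 cm above soil and maintained; plants at 2-leaf stage when treated.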
# [18] = test system: ducksalad (Heteranthera limosa); assay: Test B flooded paddy test; conditions: Heteranthera limosa, Flood, 250 g ai/ha; scale of 0 to 100 where 0 is no effect and 100 is complete control; read-out: Ducksalad plant response rating
# In short: as §2
# [19] = test system: rice (Oryra sativa); assay: Test B flooded paddy test; conditions: Oryza sativa, Flood, 250 g ai/ha; scale of 0 to 100 where 0 is no effect and 100 is complete control; read-out: Rice plant response rating
# In short: as §2
# [20] = test system: barnyardgrass (Echinochloa crus-galli); assay: Test B flooded paddy test; conditions: Echinochloa crus-galli, Flood, 250 g ai/ha; scale of 0 to 100 where 0 is no effect and 100 is complete control; read-out: Barnyardgrass plant response rating
# In short: as §2
smiles,measurement,setting,value
CCOc1cccc([C@H]2CNC(=O)[C@@H]2C(=O)Nc2ccccc2F)c1 [Compound 949],pest or weed control at 125 g/ha,[1],20%
same,pest or weed control at 125 g/ha,[2],0%
same,pest or weed control at 125 g/ha,[3],0%
same,pest or weed control at 125 g/ha,[4],0%
same,"Corn plant response rating (crop injury, 0 = no effect, 100 = complete kill) at 125 g/ha",[5],0%
same,pest or weed control at 125 g/ha,[6],90%
same,pest or weed control at 125 g/ha,[7],0%
same,pest or weed control at 125 g/ha,[8],0%
same,pest or weed control at 125 g/ha,[9],0%
same,plant injury at 125 g/ha,[10],0%
same,pest or weed control at 125 g/ha,"[11]; 125 g ai/ha, Preemergence, visual injury rating after approximately 10 d, read-out: Foxtail, Giant plant response rating (0 to 100 scale, 0 is no effect, 100 is complete control)",60%
same,pest or weed control at 500 g/ha,"[11]; 500 g ai/ha, preemergence, visual injury rating about 10 d after treatment, 0 to 100 scale (0 no effect, 100 complete control), read-out: Foxtail, Giant plant response rating",70%
same,pest or weed control at 125 g/ha,"[12]; 125 g ai/ha, Preemergence, visual injury rating after approximately 10 d, read-out: Ragweed plant response rating (0 to 100 scale, 0 is no effect, 100 is complete control)",0%
same,pest or weed control at 500 g/ha,"[12]; 500 g ai/ha, preemergence, visual injury rating about 10 d after treatment, 0 to 100 scale (0 no effect, 100 complete control), read-out: Ragweed plant response rating",0%
same,pest or weed control at 125 g/ha,"[13]; 125 g ai/ha, Preemergence, visual injury rating after approximately 10 d, read-out: Pigweed plant response rating (0 to 100 scale, 0 is no effect, 100 is complete control)",0%
same,pest or weed control at 500 g/ha,"[13]; 500 g ai/ha, preemergence, visual injury rating about 10 d after treatment, 0 to 100 scale (0 no effect, 100 complete control), read-out: Pigweed plant response rating",0%
same,pest or weed control at 125 g/ha,"[14]; 125 g ai/ha, Preemergence, visual injury rating after approximately 10 d, read-out: Barnyardgrass plant response rating (0 to 100 scale, 0 is no effect, 100 is complete control)",70%
same,pest or weed control at 500 g/ha,"[14]; 500 g ai/ha, preemergence, visual injury rating about 10 d after treatment, 0 to 100 scale (0 no effect, 100 complete control), read-out: Barnyardgrass plant response rating",100%
same,pest or weed control at 125 g/ha,"[15]; 125 g ai/ha, Preemergence, visual injury rating after approximately 10 d, read-out: Ryegrass, Italian plant response rating (0 to 100 scale, 0 is no effect, 100 is complete control)",0%
same,pest or weed control at 500 g/ha,"[15]; 500 g ai/ha, preemergence, visual injury rating about 10 d after treatment, 0 to 100 scale (0 no effect, 100 complete control), read-out: Ryegrass, Italian plant response rating",0%
same,pest or weed control at 125 g/ha,"[16]; 125 g ai/ha, Preemergence, visual injury rating after approximately 10 d, read-out: Kochia plant response rating (0 to 100 scale, 0 is no effect, 100 is complete control)",20%
same,pest or weed control at 500 g/ha,"[16]; 500 g ai/ha, preemergence, visual injury rating about 10 d after treatment, 0 to 100 scale (0 no effect, 100 complete control), read-out: Kochia plant response rating",50%
same,pest or weed control at 250 g/ha,[17],0%
same,pest or weed control at 250 g/ha,[18],100%
same,pest or weed control at 250 g/ha,[19],15%
same,pest or weed control at 250 g/ha,[20],30%
